Laboratory results from ChEMBL document CHEMBL1201862, “PubChem BioAssay data set” (2004).
Calls of active or inactive are those of the source.

What was measured:
[1] = target: T1, Sentrin-specific protease 1 (Homo sapiens, UniProt Q9P0U3); experiment: SENP1 catalytic domain blockers, concentration series – biochemical, kinetic FRET, dose response (AID 651697); format: functional; conditions: read-out: IC50_Mean
[2] = target: T1, Sentrin-specific protease 1; experiment: Dose response confirmation of small molecule inhibitors of the catalytic domain of the SUMO protease, SENP1 in a FRET assay.; format: functional; conditions: read-out: IC50_Mean
[3] = target: 72 kDa type IV collagenase (Homo sapiens, UniProt P08253); experiment: Dose Response validation of uHTS RPN11 inhibitor hits using a MMP-2 Fluorescence assay.; format: functional
[4] = target: 26S proteasome non-ATPase regulatory subunit 14 (Homo sapiens, UniProt O00487); experiment: inhibition of proteasome subunit RPN11 – biochemical, fluorescence polarization, uHTS hits, confirmation (AID 602368); format: functional
Prothrombin = Prothrombin (Bos taurus, UniProt P00735); experiment: thrombin protease inhibitors – biochemical, fluorescence polarization, uHTS hits, dose response (AID 602369); format: functional
[5] = Counterscreen for inhibitors of Trypanosoma brucei methionyl tRNA synthetase (MetRS): Luminescence-based cell-based high throughput dose response assay to identify compounds that are cytotoxic to Jurkat human T lymphocyte cells.; format: functional
[6] = target: T2, Methionyl-tRNA synthetase, putative (Trypanosoma brucei brucei, UniProt Q38C91); format: functional, Trypanosoma brucei brucei strain 927/4 GUTat10.1
T2 sequence (Q38C91 whole entry): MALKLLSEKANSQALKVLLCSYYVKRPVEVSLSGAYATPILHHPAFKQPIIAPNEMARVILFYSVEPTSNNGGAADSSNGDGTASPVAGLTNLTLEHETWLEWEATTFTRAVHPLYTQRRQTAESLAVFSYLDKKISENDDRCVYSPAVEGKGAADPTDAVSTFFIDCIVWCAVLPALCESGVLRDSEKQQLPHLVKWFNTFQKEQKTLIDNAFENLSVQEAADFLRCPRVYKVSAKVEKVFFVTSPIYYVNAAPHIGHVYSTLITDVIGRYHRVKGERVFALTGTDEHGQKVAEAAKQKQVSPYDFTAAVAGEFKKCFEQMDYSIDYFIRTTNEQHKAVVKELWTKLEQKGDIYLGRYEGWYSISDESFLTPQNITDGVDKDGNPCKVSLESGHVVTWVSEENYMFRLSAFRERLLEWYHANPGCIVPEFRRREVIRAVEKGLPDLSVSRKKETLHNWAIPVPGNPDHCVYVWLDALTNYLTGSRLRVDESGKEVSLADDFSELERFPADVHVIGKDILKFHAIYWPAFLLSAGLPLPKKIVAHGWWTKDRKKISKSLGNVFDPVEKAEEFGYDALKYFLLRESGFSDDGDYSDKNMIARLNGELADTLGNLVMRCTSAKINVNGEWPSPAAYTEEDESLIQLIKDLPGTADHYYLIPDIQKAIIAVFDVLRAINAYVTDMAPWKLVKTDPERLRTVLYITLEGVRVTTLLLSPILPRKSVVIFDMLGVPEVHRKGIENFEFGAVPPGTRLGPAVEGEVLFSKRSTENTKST

[7] = target: T2, Methionyl-tRNA synthetase, putative; format: functional, Trypanosoma brucei brucei strain 927/4 GUTat10.1; remark: listed apart in the source
Insulin-degrading enzyme = target: T3, Insulin-degrading enzyme (Homo sapiens, UniProt P14735); experiment: Dose Response: Fluorescence polarization-based cell-based high throughput dose response assay for inhibitors of insulin-degrading enzyme (IDE). [Related pubchem assays: 434962 (Primary screen (IDE inhibitors in singlicate)), 449730 (Counterscreen (Cytotoxicity in triplicate)), 435028 (Confirmation (IDE inhibitors in triplicate)), 434984 (Summary …; format: functional
T3 sequence (P14735 whole entry): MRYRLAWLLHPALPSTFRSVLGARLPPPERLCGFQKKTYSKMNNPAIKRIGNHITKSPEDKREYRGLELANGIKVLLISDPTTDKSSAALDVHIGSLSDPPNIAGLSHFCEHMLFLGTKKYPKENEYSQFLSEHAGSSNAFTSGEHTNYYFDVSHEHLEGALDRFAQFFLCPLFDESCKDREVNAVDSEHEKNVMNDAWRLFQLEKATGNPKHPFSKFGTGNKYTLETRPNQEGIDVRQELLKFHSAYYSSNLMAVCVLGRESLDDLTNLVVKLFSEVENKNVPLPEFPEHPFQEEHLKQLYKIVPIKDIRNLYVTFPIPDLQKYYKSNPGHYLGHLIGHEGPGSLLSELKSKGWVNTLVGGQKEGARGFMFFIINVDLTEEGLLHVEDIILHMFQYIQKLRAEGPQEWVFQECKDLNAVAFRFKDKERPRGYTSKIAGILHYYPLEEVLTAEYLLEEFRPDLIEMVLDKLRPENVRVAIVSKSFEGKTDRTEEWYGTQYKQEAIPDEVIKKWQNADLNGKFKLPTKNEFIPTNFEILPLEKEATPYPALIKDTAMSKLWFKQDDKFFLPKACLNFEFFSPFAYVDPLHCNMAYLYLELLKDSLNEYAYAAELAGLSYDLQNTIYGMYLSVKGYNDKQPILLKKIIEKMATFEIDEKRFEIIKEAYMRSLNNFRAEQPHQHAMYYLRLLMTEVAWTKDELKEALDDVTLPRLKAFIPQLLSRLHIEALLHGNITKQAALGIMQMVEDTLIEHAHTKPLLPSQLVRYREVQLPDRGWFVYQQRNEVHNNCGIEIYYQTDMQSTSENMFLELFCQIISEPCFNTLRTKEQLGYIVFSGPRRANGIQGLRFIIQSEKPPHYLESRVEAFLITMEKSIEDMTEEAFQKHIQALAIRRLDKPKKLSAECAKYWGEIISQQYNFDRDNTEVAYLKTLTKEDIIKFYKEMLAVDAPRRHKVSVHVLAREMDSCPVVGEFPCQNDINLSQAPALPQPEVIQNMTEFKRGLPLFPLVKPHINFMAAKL

[8] = target: DNA repair and recombination protein RAD54-like (Homo sapiens, UniProt Q92698); experiment: RAD54 Holliday junction migration blockers – biochemical, fluorescence, cherry-picked samples, dose series, confirmation (AID 651657); format: functional
[9] = Counterscreen for IDE inhibitors: Luminescence-based cell-based high throughput dose response assay to identify compounds that are cytotoxic to HEK cells. [Related pubchem assays: 434962 (Primary screen (IDE inhibitors in singlicate)), 449730 (Counterscreen (Cytotoxicity in triplicate)), 435028 (Confirmation (IDE inhibitors in triplicate)) …; format: functional; conditions: HEK293
[10] = target: Mitogen-activated protein kinase 10 (Homo sapiens, UniProt P53779); experiment: Dose response biochemical screening assay for inhibitors of c-Jun N-Terminal Kinase 3 (JNK3). [Related pubchem assays: 746 ]
[11] = target: T4, Voltage-gated N-type calcium channel alpha-1B subunit/Amyloid beta A4 precursor protein-binding family A member 1 (Homo sapiens, UniProt Q00975+Q02410); format: protein assay
[12] = target: T4, Voltage-gated N-type calcium channel alpha-1B subunit/Amyloid beta A4 precursor protein-binding family A member 1; format: protein assay; remark: listed apart in the source
Large T antigen = Large T antigen (Simian virus 40, UniProt P03070); format: functional, Betapolyomavirus macacae;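 also: Confirmatory-stage PubChem screen for compounds that inhibit SV40 T antigen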
Beta Lactamase = Beta Lactamase (Pseudomonas aeruginosa, UniProt Q932Y6); experiment: BLA reporter interference, concentration series – BLA reporter cells, FRET fluorescence, artefact control for NOD2-RIPK2 interaction inhibitor project, dose response (AID 651552); format: functional, cell-based
[13] = target: Glucose-6-phosphate 1-dehydrogenase (Homo sapiens, UniProt P11413); experiment: inhibition of Homo sapiens G6PD, dose series – biochemical, fluorescence, selectivity assay for P. falciparum G6PD inhibitor project, dose response (AID 504792); format: functional
[14] = target: T5, Rac GTPase-activating protein 1 (Homo sapiens, UniProt Q9H0H5); experiment: blockers of MgcRacGAP-driven Rac1 GTP hydrolysis – biochemical, ADP Hunter fluorescence, primary and confirmatory, confirmation (AID 624330); format: functional
T5 sequence (Q9H0H5 whole entry): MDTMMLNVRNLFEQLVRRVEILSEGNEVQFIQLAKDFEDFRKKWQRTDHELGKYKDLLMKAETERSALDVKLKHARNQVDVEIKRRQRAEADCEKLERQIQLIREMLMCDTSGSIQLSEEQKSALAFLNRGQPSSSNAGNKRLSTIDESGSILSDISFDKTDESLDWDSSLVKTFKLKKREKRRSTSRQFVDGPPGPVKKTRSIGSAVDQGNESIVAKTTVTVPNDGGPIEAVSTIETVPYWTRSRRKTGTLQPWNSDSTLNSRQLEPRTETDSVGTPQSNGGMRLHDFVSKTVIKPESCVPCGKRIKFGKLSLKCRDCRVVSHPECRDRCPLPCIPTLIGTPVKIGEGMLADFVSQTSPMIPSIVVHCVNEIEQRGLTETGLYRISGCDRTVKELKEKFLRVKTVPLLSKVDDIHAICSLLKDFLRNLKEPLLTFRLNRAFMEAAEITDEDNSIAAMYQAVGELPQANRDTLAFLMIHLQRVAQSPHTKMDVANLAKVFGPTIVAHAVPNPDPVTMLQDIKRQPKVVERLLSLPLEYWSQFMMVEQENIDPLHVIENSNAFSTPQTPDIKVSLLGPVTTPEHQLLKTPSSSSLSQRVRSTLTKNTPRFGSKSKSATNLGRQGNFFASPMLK

[15] = Fluorescence-based cell-based high throughput dose response assay for inhibitors of the interaction of nucleotide-binding oligomerization domain containing 2 (NOD2) and the receptor-interacting serine-threonine kinase 2 (RIPK2).; format: functional; conditions: Homo sapiens
Mu-type opioid receptor = Mu-type opioid receptor (Homo sapiens, UniProt P35372); format: functional, cell-based;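 also: U2OS cells with beta-arrestin recruitment to OPRM1 by beta-gal complementation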
[16] = target: 5-hydroxytryptamine receptor 2A (Mus musculus, UniProt P35363); format: functional, cell-based;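 also: CHO-K1 cells with tagged receptor and beta-arrestin; agonist potency measured as compound-induced activation of the receptor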
[17] = target: T6, Probable nicotinate-nucleotide adenylyltransferase (Staphylococcus aureus (strain N315), UniProt P65502); format: functional, Staphylococcus aureus subsp. aureus N315;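 as to IC50 Mean: confirmatory dose-response retesting of NadD inhibitor hits first found in an ultra-high-throughput screen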
[18] = target: Eukaryotic translation initiation factor 4E (Mus musculus, UniProt P63073); experiment: blockers of eIF4G binding by eIF4E – biochemical, TR-FRET, dose response (AID 855); format: functional;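 also: potency for disrupting eIF4E binding to eIF4GI seen as loss of FRET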
[19] = target: T6, Probable nicotinate-nucleotide adenylyltransferase; format: functional, Staphylococcus aureus subsp. aureus N315; conditions: read-out: IC50_Mean
Beta-lactamase [20] = target: Beta-lactamase (Pseudomonas aeruginosa, UniProt Q79MP6);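 also: biochemical dose-response test of metallo-beta-lactamase enzyme inhibition, read out by epi-absorbance; purified recombinant IMP-1 metallo-beta-lactamase with nitrocefin as substrate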
[21] = target: T7, Short transient receptor potential channel 4 (Mus musculus, UniProt Q9QUQ5); experiment: calcium entry via TRPC4 opening agents – cell-based, HEK293 TRPC4/mu-opioid, Fluo-4 calcium, dose response (AID 434937); format: functional
T7 sequence (Q9QUQ5 whole entry): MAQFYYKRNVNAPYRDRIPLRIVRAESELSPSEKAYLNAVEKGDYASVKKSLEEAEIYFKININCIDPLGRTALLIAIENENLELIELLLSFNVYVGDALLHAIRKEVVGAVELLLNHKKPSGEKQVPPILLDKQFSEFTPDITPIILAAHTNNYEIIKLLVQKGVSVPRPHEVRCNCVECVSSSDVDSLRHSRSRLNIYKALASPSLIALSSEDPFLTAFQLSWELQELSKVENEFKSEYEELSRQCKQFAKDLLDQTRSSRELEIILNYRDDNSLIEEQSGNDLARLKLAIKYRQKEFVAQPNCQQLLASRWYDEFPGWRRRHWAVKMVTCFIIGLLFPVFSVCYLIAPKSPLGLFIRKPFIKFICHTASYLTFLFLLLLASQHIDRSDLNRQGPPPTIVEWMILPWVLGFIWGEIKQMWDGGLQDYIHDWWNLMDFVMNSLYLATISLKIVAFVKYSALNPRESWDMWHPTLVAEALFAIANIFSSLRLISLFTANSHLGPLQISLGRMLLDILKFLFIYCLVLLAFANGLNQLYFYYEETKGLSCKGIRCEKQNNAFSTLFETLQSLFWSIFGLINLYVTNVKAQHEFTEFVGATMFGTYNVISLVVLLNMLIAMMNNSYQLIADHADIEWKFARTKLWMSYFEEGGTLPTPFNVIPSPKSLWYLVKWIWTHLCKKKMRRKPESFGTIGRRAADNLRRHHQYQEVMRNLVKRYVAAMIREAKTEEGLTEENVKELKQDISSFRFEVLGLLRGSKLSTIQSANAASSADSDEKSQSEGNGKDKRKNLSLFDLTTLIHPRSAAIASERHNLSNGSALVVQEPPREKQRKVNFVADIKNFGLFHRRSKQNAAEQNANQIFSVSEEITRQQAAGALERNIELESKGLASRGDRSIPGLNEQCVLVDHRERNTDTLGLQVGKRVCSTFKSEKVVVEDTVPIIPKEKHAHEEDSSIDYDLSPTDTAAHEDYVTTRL

Beta-lactamase [22] = target: Beta-lactamase (Salmonella choleraesuis (strain SC-B67), UniProt Q5J463)
Chain of Beta-lactamase (Salmonella choleraesuis (strain SC-B67), UniProt Q5J463) (Q5J463 whole entry): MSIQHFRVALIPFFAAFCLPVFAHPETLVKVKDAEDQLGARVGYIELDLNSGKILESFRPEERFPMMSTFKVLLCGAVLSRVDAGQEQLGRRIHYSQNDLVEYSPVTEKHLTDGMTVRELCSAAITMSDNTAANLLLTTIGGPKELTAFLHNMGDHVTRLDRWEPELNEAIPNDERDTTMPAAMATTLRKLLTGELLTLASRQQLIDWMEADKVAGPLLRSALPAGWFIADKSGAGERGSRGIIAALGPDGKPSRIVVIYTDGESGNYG

T6 sequence (P65502 whole entry): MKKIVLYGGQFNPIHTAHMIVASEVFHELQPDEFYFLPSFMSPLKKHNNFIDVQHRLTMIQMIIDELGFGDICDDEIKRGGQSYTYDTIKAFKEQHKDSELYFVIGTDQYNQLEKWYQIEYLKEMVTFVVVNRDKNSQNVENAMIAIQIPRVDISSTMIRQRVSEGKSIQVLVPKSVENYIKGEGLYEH
T1 sequence (Q9P0U3 whole entry, the tested form may be a part): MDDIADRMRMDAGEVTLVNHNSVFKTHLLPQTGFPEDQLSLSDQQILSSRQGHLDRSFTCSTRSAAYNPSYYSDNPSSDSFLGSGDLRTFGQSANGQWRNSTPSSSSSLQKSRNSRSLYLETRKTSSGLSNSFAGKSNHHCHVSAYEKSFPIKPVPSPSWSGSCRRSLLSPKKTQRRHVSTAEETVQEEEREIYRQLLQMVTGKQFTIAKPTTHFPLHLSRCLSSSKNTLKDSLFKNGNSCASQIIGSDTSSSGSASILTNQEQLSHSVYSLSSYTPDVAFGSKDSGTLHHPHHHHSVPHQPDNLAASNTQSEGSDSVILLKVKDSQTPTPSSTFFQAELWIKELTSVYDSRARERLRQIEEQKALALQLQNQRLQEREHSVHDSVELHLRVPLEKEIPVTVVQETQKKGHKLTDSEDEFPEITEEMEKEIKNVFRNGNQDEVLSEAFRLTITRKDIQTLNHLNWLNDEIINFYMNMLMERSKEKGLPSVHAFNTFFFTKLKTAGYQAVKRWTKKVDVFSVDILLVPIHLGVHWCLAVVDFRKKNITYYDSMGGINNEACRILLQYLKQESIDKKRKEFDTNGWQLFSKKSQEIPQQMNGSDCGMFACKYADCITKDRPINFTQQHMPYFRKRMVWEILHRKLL
T4 sequence (Q00975 whole entry): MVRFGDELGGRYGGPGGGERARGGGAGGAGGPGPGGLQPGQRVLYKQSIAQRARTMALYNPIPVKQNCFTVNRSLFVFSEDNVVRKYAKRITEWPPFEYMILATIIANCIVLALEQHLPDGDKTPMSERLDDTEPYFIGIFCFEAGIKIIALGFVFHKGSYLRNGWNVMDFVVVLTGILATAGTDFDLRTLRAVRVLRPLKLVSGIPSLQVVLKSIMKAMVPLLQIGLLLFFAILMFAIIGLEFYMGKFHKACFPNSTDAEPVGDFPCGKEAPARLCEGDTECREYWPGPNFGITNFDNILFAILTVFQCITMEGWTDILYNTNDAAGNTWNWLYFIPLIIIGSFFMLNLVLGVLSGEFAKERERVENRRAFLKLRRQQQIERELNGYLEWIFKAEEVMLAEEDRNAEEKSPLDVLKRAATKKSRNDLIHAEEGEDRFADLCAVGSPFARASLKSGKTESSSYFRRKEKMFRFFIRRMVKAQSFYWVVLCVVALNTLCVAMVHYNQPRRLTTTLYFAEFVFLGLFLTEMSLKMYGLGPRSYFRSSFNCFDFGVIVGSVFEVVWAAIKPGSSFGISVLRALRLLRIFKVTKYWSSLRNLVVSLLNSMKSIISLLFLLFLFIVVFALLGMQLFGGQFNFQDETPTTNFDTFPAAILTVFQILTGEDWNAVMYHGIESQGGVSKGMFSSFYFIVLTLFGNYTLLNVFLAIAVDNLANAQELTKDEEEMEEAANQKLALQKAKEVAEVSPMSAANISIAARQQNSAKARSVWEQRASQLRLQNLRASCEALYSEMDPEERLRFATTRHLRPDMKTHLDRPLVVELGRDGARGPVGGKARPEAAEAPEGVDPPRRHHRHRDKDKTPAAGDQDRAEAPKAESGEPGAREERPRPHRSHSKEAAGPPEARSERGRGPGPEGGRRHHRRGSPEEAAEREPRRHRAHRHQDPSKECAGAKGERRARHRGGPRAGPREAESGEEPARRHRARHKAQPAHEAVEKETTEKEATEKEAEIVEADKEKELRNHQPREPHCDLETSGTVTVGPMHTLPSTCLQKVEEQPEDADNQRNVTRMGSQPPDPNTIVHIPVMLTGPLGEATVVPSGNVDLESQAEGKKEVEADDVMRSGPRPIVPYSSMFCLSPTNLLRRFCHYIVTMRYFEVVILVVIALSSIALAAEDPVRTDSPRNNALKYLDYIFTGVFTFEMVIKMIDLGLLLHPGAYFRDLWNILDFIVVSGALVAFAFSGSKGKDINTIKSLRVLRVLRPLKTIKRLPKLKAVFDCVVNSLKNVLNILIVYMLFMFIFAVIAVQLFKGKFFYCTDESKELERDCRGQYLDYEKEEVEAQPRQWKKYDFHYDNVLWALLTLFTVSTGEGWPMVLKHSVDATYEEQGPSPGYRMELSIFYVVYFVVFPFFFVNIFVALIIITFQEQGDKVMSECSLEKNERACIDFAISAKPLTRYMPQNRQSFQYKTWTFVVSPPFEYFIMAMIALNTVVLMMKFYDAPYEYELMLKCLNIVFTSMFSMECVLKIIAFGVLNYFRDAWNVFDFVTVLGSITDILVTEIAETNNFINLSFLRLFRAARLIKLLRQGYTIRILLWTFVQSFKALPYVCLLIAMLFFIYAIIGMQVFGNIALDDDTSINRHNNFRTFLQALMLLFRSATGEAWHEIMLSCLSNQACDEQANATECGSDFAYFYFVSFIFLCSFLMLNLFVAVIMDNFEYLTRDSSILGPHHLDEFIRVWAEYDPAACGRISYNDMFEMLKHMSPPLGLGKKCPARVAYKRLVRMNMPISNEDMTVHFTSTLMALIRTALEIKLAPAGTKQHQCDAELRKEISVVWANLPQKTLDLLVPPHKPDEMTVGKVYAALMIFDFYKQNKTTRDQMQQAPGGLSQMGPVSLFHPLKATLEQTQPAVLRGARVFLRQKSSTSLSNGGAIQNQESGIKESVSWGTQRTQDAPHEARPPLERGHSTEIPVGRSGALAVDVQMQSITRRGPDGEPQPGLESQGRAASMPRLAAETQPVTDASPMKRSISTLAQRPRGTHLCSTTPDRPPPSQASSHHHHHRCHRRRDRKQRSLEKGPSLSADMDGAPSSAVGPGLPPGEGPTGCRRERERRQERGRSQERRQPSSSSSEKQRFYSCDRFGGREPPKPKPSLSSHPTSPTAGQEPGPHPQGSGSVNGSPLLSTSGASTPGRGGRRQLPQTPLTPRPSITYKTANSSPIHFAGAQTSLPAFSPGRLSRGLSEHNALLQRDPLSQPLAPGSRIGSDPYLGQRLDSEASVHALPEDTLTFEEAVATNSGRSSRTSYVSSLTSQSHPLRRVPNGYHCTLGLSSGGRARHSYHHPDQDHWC
T4 sequence (Q02410 whole entry): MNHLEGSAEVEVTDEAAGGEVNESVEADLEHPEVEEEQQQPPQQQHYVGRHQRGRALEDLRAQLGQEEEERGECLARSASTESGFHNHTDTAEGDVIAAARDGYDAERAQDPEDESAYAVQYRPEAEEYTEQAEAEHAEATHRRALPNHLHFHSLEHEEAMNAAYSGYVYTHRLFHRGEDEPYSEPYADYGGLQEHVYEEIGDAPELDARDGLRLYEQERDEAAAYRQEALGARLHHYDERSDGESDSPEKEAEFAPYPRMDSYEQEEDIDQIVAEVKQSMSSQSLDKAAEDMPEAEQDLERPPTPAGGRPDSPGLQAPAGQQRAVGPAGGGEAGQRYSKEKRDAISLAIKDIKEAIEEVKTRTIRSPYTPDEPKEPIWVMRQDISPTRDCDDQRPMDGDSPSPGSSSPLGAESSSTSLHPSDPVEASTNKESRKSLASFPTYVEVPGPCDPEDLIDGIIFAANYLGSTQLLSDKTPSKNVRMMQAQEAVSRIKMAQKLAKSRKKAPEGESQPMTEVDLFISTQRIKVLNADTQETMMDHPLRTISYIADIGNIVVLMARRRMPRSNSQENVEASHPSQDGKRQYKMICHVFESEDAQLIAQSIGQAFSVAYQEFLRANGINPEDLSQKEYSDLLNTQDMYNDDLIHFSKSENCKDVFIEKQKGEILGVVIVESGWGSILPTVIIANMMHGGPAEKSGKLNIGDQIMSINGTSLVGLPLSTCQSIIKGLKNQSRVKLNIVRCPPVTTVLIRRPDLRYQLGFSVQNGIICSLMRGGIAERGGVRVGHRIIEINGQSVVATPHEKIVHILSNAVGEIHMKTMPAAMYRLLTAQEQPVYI
Chain of Eukaryotic translation initiation factor 4E (P63073 whole entry): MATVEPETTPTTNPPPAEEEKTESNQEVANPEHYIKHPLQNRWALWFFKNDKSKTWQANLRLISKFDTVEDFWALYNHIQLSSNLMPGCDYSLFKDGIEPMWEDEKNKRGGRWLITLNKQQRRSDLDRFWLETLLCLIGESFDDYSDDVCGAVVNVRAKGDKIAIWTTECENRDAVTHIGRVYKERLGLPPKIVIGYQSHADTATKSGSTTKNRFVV
Chain of 5-hydroxytryptamine receptor 2A (P35363 whole entry): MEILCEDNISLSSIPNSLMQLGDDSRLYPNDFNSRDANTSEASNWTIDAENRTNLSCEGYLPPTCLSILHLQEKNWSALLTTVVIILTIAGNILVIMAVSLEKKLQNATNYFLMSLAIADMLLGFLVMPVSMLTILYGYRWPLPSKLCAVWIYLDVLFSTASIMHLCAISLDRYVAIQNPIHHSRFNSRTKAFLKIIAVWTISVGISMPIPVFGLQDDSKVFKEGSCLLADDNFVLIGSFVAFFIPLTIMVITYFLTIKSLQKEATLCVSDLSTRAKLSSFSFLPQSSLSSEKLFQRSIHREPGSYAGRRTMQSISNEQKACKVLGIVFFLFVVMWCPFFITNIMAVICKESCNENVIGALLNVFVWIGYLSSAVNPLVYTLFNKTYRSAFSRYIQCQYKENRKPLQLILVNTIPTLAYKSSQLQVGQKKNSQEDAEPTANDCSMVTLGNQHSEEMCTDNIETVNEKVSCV

## COc1ccc2c(C)cc(SCC(=O)N3CCOCC3)nc2c1
[1]
  IC50: 13.3 µM (active)
[2]
  IC50: 7.01 µM (active)
[3]
  IC50: > 100 µM (inactive)
[4]
  IC50: 9.61 µM (active)
Prothrombin
  IC50: 21.6 µM (active)

## Clc1ccc2[nH]c3c(NCCCN4CCOCC4)ncnc3c2c1
[5]
  IC50: 59.8 µM (inactive)
[6]
  IC50: 9.1 µM (active)
[7]
  IC50: 11.3 µM (inactive)
Insulin-degrading enzyme
  IC50: 10.9 µM (not active)
[8]
  AC50: 33.7 µM (active)
[9]
  IC50: 14.3 µM (not active)

## CC1=C(C)C[S+]([O-])N(S(=O)(=O)c2ccc(Cl)cc2)C1 (configuration not stated)
[10]
  IC50: > 93.1 µM (not active)
[11]
  IC50: > 50 µM (inactive)
[12]
  IC50: 30.9 µM (active)
Large T antigen
  IC50: 18.1 µM (active)
Beta Lactamase
  IC50: 25.8 µM (inactive)
[13]
  IC50: > 80 µM (inactive)
[14]
  IC50: 71.9 µM (active)
[15]
  IC50: 5.57 µM (active)

## CN(C)S(=O)(=O)c1cc(NC(=O)CN2CCN(c3ccccc3)CC2)ccc1Cl
Mu-type opioid receptor
  EC50: 92.4 µM (inactive)
[16]
  EC50: 30.5 µM (inactive)

## Cc1ccc(-c2cc(-c3ccc(Cl)cc3)c(C#N)c(N)n2)o1
[17]
  IC50: 0.461 µM (active)
[18]
  IC50: > 64 µM (inactive)
[19]
  IC50: 0.808 µM (active)

## O=C1/C(=C\c2cc(Cl)c(O)c(Cl)c2)SC(=S)N1Cc1ccccc1
Beta-lactamase [20]
  IC50: > 59.6 µM (inactive)
[21]
  EC50: 5.31 µM (active)
Beta-lactamase [22]
  IC50: 3.15 µM (active)
